Assay results from US6680058B1, “Compositions and methods for contraception in or sterilization of mammals” (Board of Supervisors of Louisiana State University and …, priority 1997, dated 2004).
Where no end group is shown, it is not given here.

Assays:
[1] = system: pituitary basophilic (gonadotropic) cells; assay: Adult female rat pituitary gland sections in tissue culture, histology ten hours after treatment (Examples 1-6); assay type: cell-based
Experimental: The pituitary gland of an adult female rat was harvested and divided into six sections of approximately equal size. One section was placed in each of six wells containing tissue culture medium at 37° C. A different treatment was applied to each well, as described below. Ten hours after treatment, the tissue from each well was fixed, and the histology of each was examined microscopically.

[2] = system: gonadotropes in the pituitary and neurons in the brain bearing GnRH receptors; assay: Rats, treatments generally similar to treatments 9-14, immunohistochemical staining (Example 23); assay type: in vivo, rat; conditions: fusion peptide administered
Experimental: Subsequent experiments were conducted on rats using treatments generally similar to treatments 9-14 above. […] The selective killing of these cells was seen after the GnRH-hecate fusion peptide was administered; and after the administration of GnRH alone, followed 10 minutes later by the administration of hecate alone.

[3] = system: sexually mature, mixed breed, female rats; assay: Sexually mature female rats, double intravenous treatment, necropsy two weeks after treatment (Examples 9-14); assay type: in vivo, rat
Text: Eighteen sexually mature, mixed breed, female rats were randomly assigned to one of six groups containing three rats each. Each group of rats received a double treatment intravenously, as described below. Two weeks after the treatment, the rats were sacrificed and necropsied. The reproductive and endocrine organs were sectioned, weighed, and examined histologically.

[4] = system: sexually immature female rats; assay: Sexually immature female rats, two intravenous injections, examined after reaching breeding age (Examples 7-8); assay type: in vivo, rat
Experimental: Two sexually immature female rats from the same litter (age 33 days) were given two intravenous injections of saline control solution 24 hours apart. After the rats reached breeding age, they were examined 105 days post-inoculation. […] During a fourteen-day monitoring period 107 days to 121 days post-inoculation, each of the control rats completed two estrous cycles. The rats were then sacrificed and necropsied. The reproductive organs appeared histologically normal.
Two sexually immature female rats from the same litter as those of Example 7 (age 33 days) were given two intravenous injections of 500 μg GnRH/hecate fusion peptide in saline 24 hours apart. After the rats reached breeding age, they were examined 105 days post-inoculation. […] Unlike the control rats, insertion of a cotton-tipped swab into the vagina was difficult. […] The rats were then sacrificed and necropsied.

[5] = system: sexually mature, Sprague-Dawley female rats; assay: Sexually mature Sprague-Dawley female rats, single intravenous treatment, necropsy 48 or 96 hours after treatment, H&E and PAS stain (Examples 15-22); assay type: in vivo, rat; conditions: for appearance of the pituitary glands: 1 mg i.v.
Experimental: Eight sexually mature, Sprague-Dawley female rats were randomly assigned to one of eight treatments. Each group of rats received a single treatment intravenously, as described below. Rats were sacrificed and necropsied either 48 or 96 hours after treatment. The ovaries, uterus, pancreas, liver, spleen, lungs, heart, thyroid, and adrenal glands were fixed in 10% buffered formalin; sectioned; and stained with H&E (hematoxylin and eosin) stain; except that the pituitary glands were stained with PAS (periodic acid-Schiff) stain with no counter-stain. The treatments were selected so that each animal received an equimolar amount of the compound with which it was treated.

[6] = system: GnRH receptor-bearing cells in the brain (neurons) and in the pituitary (gonadotrophic cells); assay: Summary of the in vivo studies: selectivity of the GnRH-hecate conjugate; design: species or system rats and rabbits
[7] = system: sexually immature female rats; assay: Thirty-three-day-old sexually immature female rats, intravenous, sacrificed 14 days after treatment, histology and immunocytochemistry (Examples 35-38); assay type: in vivo, rat; conditions: Treatment 37: 0.5 mg i.v.
Experimental: Another set of experiments was performed to study the in vivo effects of the GnRH-hecate conjugate on female rats and rabbits. The ovaries, uterus, oviducts, adrenals, spleen, thyroids, pancreas, liver, lungs, and heart were processed for histological analysis. […] The immunocytochemical staining procedures we used followed generally the procedures of M. Rahmanian et al., “Histological and immunocytochemical characterization of pituitary cell types in ponies,” Proc. 13th Soc. Equine Nutrition & Phys. Symp., pp. 348-349 (1993); M. Rahmanian et al., “Immunocytochemical localization of luteinizing hormone and follicle-stimulating hormone in the equine pituitary,” J. Anim. Sci., vol. 76, pp. 839-846 (1998); M. Rahmanian et al., “Immunocytochemical localization of prolactin and growth hormone in the equine pituitary,” Animal Sci., vol. 75, pp. 3010-3018 (1997); and P. Melrose et al., “Comparative topography of the immunoreactive alpha-melanocyte-stimulating hormone neuronal system in the brains of horses and rats,” Brain Beh. & Evol., vol. 32, pp. 226-235 (1988).
Brains were serially sectioned on a Vibrotome from the level of the diagonal band of Broca to the mammillary body. Alternate sections were consecutively divided into four to five dishes, and sections in alternate dishes were stained with cresyl violet, or were stained immunocytochemically for GnRH or the GnRH precursor, VP, OXY, or tyrosine hydroxylase (the rate-limiting enzyme in catecholamine synthesis). In addition to the staining procedures cited above, we also used the immunocytochemical staining procedures of P. Melrose et al., “Distribution and morphology of immunoreactive gonadotropin-releasing hormone (GnRH) neurons in the basal forebrain of ponies,” J. Comp. Neurol. vol. 339, pp. 269-287 (1994); and P. Melrose et al., “Topography of oxytocin and vasopressin neurons in the forebrain of Equus caballus: Further support of proposed evolutionary relationships for proopiomelanocortin, oxytocin and vasopressin neurons,” Brain, Beh. & Evol., vol. 33, pp. 193-204 (1989).
Thirty-three-day-old, sexually immature female rats were given intravenous administrations as follow:
Animals were sacrificed 14 days after treatment.

[8] = Treatment 10: two 0.5 mg i.v. injections 24 hours apart, two weeks
[9] = Treatment 14: fusion peptide further purified by HPLC, two 0.5 mg i.v. injections 24 hours apart
[10] = two i.v. injections of 500 μg 24 hours apart at age 33 days, necropsy after day 121

GnRH-hecate: fusion peptide of modified GnRH bonded directly to the lytic peptide hecate, SEQ. ID NO. 3 (QHWSYGLRPGFALALKALKKALKKLKKALKKAL; ends and bridges not checked; also: GnRH part modified, modification not given here)
histology of pituitary tissue after treatment ([1]; 50 μM fusion peptide, ten hours): Widespread basophilic (gonadotropic) cellular destruction
histology of pituitary tissue after treatment ([1]; initial application of fusion peptide, second application two hours later): virtually destroyed, with only stromal cells remaining
LH and FSH secretion by pituitary cells [2]: no longer secreted either LH or FSH
selective cell killing seen with immunohistochemical staining ([2]; treatments generally similar to treatments 9-14): selectively killed (1) gonadotropes in the pituitary, and (2) neurons in the brain bearing GnRH receptors
ovarian function / follicular development ([3]; Treatment 10: total 1.0 mg in saline i.v. as two 0.5 mg injections 24 hours apart, two weeks): arrest of normal ovarian follicular development
corpora lutea and follicles [3, 8]: Few corpora lutea were present, and those that were present appeared old. Follicles were large, and had not ruptured
pituitary size [3, 8]: slightly smaller than the pituitaries from the saline control group
uterine morphology [3, 8]: consistent with hormonal inactivity
corpora lutea and follicles [3, 9]: Few corpora lutea were present, and those that were present appeared old. Follicles were large, and had not ruptured
uterine morphology [3, 9]: consistent with hormonal inactivity
ovarian function / follicular development ([3]; Treatment 14: fusion peptide further purified by HPLC, two 0.5 mg i.v. injections 24 hours apart, two weeks): arrest of normal ovarian follicular development
estrous cycling during fourteen-day monitoring period ([4]; two i.v. injections of 500 μg 24 hours apart at age 33 days, 107 to 121 days post-inoculation): neither of the treated rats demonstrated estrous or metestrous
insertion of a cotton-tipped swab into the vagina ([4]; two i.v. injections of 500 μg 24 hours apart at age 33 days, 105 days post-inoculation): difficult
ovarian follicles at necropsy [4, 10]: contained no large follicles, and had a high number of atretic follicles
uterine and oviductal epithelia at necropsy [4, 10]: thinned, inactive
appearance of external genitalia ([4]; two i.v. injections of 500 μg in saline 24 hours apart at age 33 days, examined 105 days post-inoculation): appeared small
appearance of the pituitary glands ([5]; sacrificed 48 hours after injection): slightly enlarged, hyperemic, and edematous
appearance of the pituitary glands ([5]; sacrificed 96 hours after injection): slightly hyperemic, but of expected size
gross lesions in the organs ([5]; 1 mg in 100 μL saline (2.7 mM) i.v., sacrificed 48 or 96 hours after injection): No gross lesions were noted in the organs of any of the four animals, other than the pituitary
changes in other endocrine and non-endocrine tissues (except for the ovary) [6]: No changes
changes in pituitary cells that lacked GnRH receptors [6]: No changes
cytotoxic changes in neurons that lacked GnRH receptors [6]: No cytotoxic changes
effect on GnRH receptor-bearing cells [6]: selectively damaged GnRH receptor-bearing cells in the brain (neurons) and in the pituitary (gonadotrophic cells)
reduction of pituitary weights compared to the two GnRH control groups ([7]; 33-day-old female rat, 14 days after treatment): 13%
adrenocorticotropic hormone levels in the pars distalis ([7]; 14 days): reduced
cell bodies of GnRH-stained neurons in hypophysiotropic areas of the brain ([7]; 14 days): frequently deformed
histology of the C1 and C3 fields of the hippocampus ([7]; 14 days): histological damage to cells
number of alpha-MSH-stained cells in the pars distalis ([7]; 14 days): increased
pathological changes in any other tissues ([7]; 14 days): No pathological changes
reduction of the numbers of bLH-specific gonadotropes compared to the two GnRH control groups ([7]; 14 days): 92%
VP staining in the paraventricular nucleus ([7]; 14 days, may have been caused by a precipitate): increased staining of parvicellular VP neurons in the paraventricular nucleus
